For the test, the target named is T1, human ERα (Homo sapiens, UniProt P03372).
T1 sequence (P03372 1-595): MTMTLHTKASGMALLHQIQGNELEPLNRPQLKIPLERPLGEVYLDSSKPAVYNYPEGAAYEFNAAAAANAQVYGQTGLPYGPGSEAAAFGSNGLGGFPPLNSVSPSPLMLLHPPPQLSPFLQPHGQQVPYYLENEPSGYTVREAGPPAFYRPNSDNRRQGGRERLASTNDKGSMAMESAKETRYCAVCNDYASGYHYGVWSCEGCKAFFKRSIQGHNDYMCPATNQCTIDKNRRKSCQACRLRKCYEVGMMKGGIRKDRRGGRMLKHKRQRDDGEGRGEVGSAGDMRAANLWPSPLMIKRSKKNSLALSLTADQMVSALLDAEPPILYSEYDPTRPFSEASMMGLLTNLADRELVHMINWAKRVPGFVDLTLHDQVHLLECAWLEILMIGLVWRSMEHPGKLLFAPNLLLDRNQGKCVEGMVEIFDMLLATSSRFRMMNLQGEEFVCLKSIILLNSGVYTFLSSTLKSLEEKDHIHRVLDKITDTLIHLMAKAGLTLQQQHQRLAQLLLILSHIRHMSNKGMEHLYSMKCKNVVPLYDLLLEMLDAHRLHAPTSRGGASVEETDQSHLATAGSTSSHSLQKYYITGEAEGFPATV
The experiment in a line: NF-κB luciferase reporter (ER/NF-KB-luc) in Ad5-wt-hERα infected HAECT-1 cells. The following applies: for IC50: ER/NF-KB-luc IC50, Ad5-wt-ER infected HAECT-1 cells, IL-1β.

Where [1] appears, read: HAECT1, read-out: ER/NF-KB-luc % E2, efficacy relative to the maximal inhibition observed with E2.
[2] abbreviates: HAECT1, read-out: ER/NF-KB-luc % E2.

Where two headings read alike, the source gives them in different places.

The values that follow come from patent US7241791B2, “Substituted 4-(indazol-3-yl)phenols” (Wyeth, priority 2002, dated 2007).

With `CCCn1nc(-c2ccc(O)cc2O)c2ccc(O)cc21` [Example 1, 4-(6-hydroxy-1-propyl-1H-indazol-3-yl)benzene-1,3-diol], the Emax under setting [1] was 74%.

With `Oc1ccc(-c2nn(-c3cccc(Cl)c3)c3cc(O)ccc23)c(O)c1` [Example 6, 4-[1-(3-chlorophenyl)-6-hydroxy-1H-indazol-3-yl]benzene-1,3-diol], the Emax under setting [1] was found to be 85%.

Turning to `Oc1ccc(-c2nn(-c3cccc(F)c3)c3cc(O)ccc23)c(O)c1` [Example 21, 4-[1-(3-fluorophenyl)-6-hydroxy-1H-indazol-3-yl]benzene-1,3-diol], the Emax under setting [2] came to 73%.

What is called IC50 is the concentration needed to halve the response being measured. As for `Oc1ccc(-c2nn(-c3ccccc3F)c3cc(O)ccc23)c(O)c1` [Example 22, 4-[1-(2-fluorophenyl)-6-hydroxy-1H-indazol-3-yl]benzene-1,3-diol], inhibition was half-maximal at 50 nM (IC50). Also, the Emax under setting [1] worked out at 73%.

Molecule `Oc1ccc(-c2nn(-c3ccc(F)c(Cl)c3)c3cc(O)ccc23)c(O)c1` [Example 24, 4-[1-(3-chloro-4-fluorophenyl)-6-hydroxy-1H-indazol-3-yl]benzene-1,3-diol] had an IC50 of 63 nM. For the same molecule, the Emax under setting [1] is 83%.

`O=[N+]([O-])c1cccc(-n2nc(-c3ccc(O)cc3O)c3ccc(O)cc32)c1` [Example 25, 4-[6-hydroxy-1-(3-nitrophenyl)-1H-indazol-3-yl]benzene-1,3-diol] returned an IC50 of 274 nM. The Emax under setting [1] was 112%.

`Oc1ccc(-c2nn(-c3cccc(C(F)(F)F)c3)c3cc(O)ccc23)c(O)c1` [Example 26, 4-{6-hydroxy-1-[3-(trifluoromethyl)phenyl]-1H-indazol-3-yl}benzene-1,3-diol] returned a concentration for half-maximal inhibition (IC50) of 356 nM. In addition, under setting [1], the Emax was 101%.

The molecule `CC(C)c1ccc(-n2nc(-c3ccc(O)cc3O)c3ccc(O)cc32)cc1` [Example 27, 4-[6-hydroxy-1-(4-isopropylphenyl)-1H-indazol-3-yl]benzene-1,3-diol] came in with a concentration for half-maximal inhibition (IC50) of 1030 nM. Also, the Emax under setting [1] worked out at 96%.

For the molecule `CS(=O)(=O)c1ccc(-n2nc(-c3ccc(O)cc3O)c3ccc(O)cc32)cc1` [Example 28, 4-{6-hydroxy-1-[4-(methylsulfonyl)phenyl]-1H-indazol-3-yl}benzene-1,3-diol], the IC50 came out at 551 nM. The Emax under setting [1] came to 86%.

For the molecule `Oc1ccc(-c2nn(-c3ccc(Br)cc3)c3c(C(F)(F)F)cccc23)cc1` [Example 31, 4-[1-(4-bromophenyl)-7-(trifluoromethyl)-1H-indazol-3-yl]phenol], the midpoint of inhibition, the IC50, lay at 636 nM. Besides, the Emax under setting [1] was 120%.

The molecule `Oc1ccc(-c2nn(C3CCCCC3)c3c(C(F)(F)F)cccc23)cc1` [Example 32, 4-[1-cyclohexyl-7-(trifluoromethyl)-1H-indazol-3-yl]phenol] registered a half-maximal inhibitory concentration (IC50) of 65 nM. Further, under setting [1], the Emax amounted to 91%.

`CCCn1nc(-c2ccc(O)cc2)c2cccc(C)c21` [Example 37, 4-(7-methyl-1-propyl-1H-indazol-3-yl)phenol]: the Emax under setting [2] worked out at 95%.

In the case of `CCCCCn1nc2c(Cl)cccc2c1-c1ccc(O)cc1` [Example 42, 4-[7-chloro-2-pentyl-2H-indazol-3-yl]phenol], the half-inhibitory concentration (IC50) is 190 nM. Under setting [1], the Emax worked out at 102%.

For the molecule `CCCn1nc(-c2ccc(O)cc2)c2cccc(Cl)c21` [Example 43, 4-(7-chloro-1-propyl-1H-indazol-3-yl)phenol], under setting [1], the Emax turned out to be 79%.

In turn, `CCCn1nc2c(F)cccc2c1-c1ccc(O)cc1` [Example 54, 4-(7-fluoro-2-propyl-2H-indazol-3-yl)phenol] gave an IC50 of 393 nM. The Emax under setting [1] was 77%.

`Cc1cc(-c2nn(C3CCCC3)c3c(F)cccc23)ccc1O` [Example 63, 4-(1-cyclopentyl-7-fluoro-1H-indazol-3-yl)-2-methylphenol] displayed an IC50 of 1880 nM. Besides, the Emax under setting [1] was 158%.

In the case of `Oc1ccc(-c2nn(CC3CCCCC3)c3c(C(F)(F)F)cccc23)c(O)c1` [Example 67, 4-[1-(cyclohexylmethyl)-7-(trifluoromethyl)-1H-indazol-3-yl]benzene-1,3-diol], the IC50 is 48 nM. In addition, the Emax under setting [1] is 65%.

In turn, `CC(C)Cn1nc(-c2ccc(O)cc2O)c2cccc(C(F)(F)F)c21` [Example 68, 4-[1-isobutyl-7-(trifluoromethyl)-1H-indazol-3-yl]benzene-1,3-diol] came in with an IC50 of 56 nM. Besides, the Emax under setting [1] is 74%.

As to `Oc1ccc(-c2nn(C3CCC3)c3c(C(F)(F)F)cccc23)c(O)c1` [Example 70, 4-[1-cyclobutyl-7-(trifluoromethyl)-1H-indazol-3-yl]benzene-1,3-diol], half-maximal inhibition (IC50) required 14 nM. Further, the Emax under setting [1] came to 76%.

`CC(C)n1nc(-c2ccc(O)cc2O)c2cccc(Cl)c21` [Example 80, 4-(7-chloro-1-isopropyl-1H-indazol-3-yl)benzene-1,3-diol] registered an IC50 of 18 nM. The Emax under setting [1] turned out to be 48%.

In turn, `C=CCn1nc(-c2ccc(O)cc2C)c2cccc(Cl)c21` [Example 82, 4-(1-allyl-7-chloro-1H-indazol-3-yl)-3-methylphenol] had an IC50 of 191 nM. Besides, the Emax under setting [1] stood at 68%.

Regarding `Cc1cc(O)ccc1-c1nn(C(C)C)c2c(C(F)(F)F)cccc12` [Example 83, 4-[1-isopropyl-7-(trifluoromethyl)-1H-indazole-3-yl]-3-methylphenol], the Emax under setting [1] was found to be 82%.

For `Cc1cc(O)ccc1-c1nn(C2CCCC2)c2c(Cl)cccc12` [Example 84, 4-(7-chloro-1-cyclopentyl-1H-indazole-3-yl)-3-methylphenol], it took 36 nM to reach half-maximal inhibition (IC50). For the same molecule, under setting [1], the Emax came to 75%.

Take `C=CCn1nc(-c2ccc(O)cc2O)c2cccc(Cl)c21` [Example 85, 4-(1-allyl-7-chloro-1H-indazole-3-yl)benzene-1,3-diol]: 235 nM corresponded to half-maximal inhibition (IC50). Moreover, the Emax under setting [1] was 46%.

`Oc1ccc(-c2nn(C3CCCC3)c3c(F)cccc23)c(O)c1` [Example 88, 4-(1-cyclopentyl-7-fluoro-1H-indazole-3-yl)benzene-1,3-diol] yielded a 50% inhibitory concentration (IC50) of 419 nM. Under setting [1], the Emax is 74%.

`CC(C)n1nc2c(F)cccc2c1-c1ccc(O)cc1O` [Example 89, 4-(7-fluoro-2-isopropyl-2H-indazole-3-yl)benzene-1,3-diol] gave a 50% inhibitory concentration (IC50) of 435 nM. The Emax under setting [1] stood at 97%.

For the molecule `CCCn1nc2c(F)cccc2c1-c1ccc(O)cc1C` [Example 92, 4-(7-fluoro-2-propyl-2H-indazole-3-yl)-3-methylphenol], it took 228 nM to reach half-maximal inhibition (IC50). For the same molecule, the Emax under setting [1] was 87%.

Take `CCCn1nc(-c2ccc(O)cc2C)c2cccc(F)c21` [Example 93, 4-(7-fluoro-1-propyl-1H-indazole-3-yl)-3-methylphenol]: the IC50 amounted to 128 nM. For the same molecule, under setting [1], the Emax was 60%.

The molecule `CC(C)Cn1nc(-c2ccc(O)cc2O)c2cccc(F)c21` [Example 94, 4-(7-fluoro-1-isobutyl-1H-indazole-3-yl)benzene-1,3-diol] showed an IC50 of 332 nM. Besides, the Emax under setting [1] was 86%.

Regarding `Cc1cc(O)ccc1-c1nn(CC(C)C)c2c(F)cccc12` [Example 96, 4-(7-fluoro-1-isobutyl-1H-indazole-3-yl)-3-methylphenol], the half-maximal inhibitory concentration (IC50) is 88 nM. For the same molecule, the Emax under setting [1] is 78%.

In turn, `Oc1ccc(-c2nn(-c3ccsc3)c3c(Cl)cccc23)cc1` [Example 101, 4-(7-chloro-1-thien-3-yl-1H-indazole-3-yl)phenol] displayed a half-maximal inhibitory concentration (IC50) of 505 nM. Also, the Emax under setting [1] was determined as 61%.

As for `CCCn1nc(-c2ccc(O)cc2)c2cccc(-c3ccc(O)cc3)c21` [Example 103, 4-[3-(4-hydroxyphenyl)-1-propyl-1H-indazole-7-yl]phenol], the concentration for half-maximal inhibition (IC50) worked out at 138 nM. Further, the Emax under setting [1] was 79%.

Take `CCCn1nc(-c2ccc(O)cc2)c2cccc(-c3ccc(F)cc3)c21` [Example 104, 4-[7-(4-Fluorophenyl)-1-propyl-1H-indazole-3-yl]phenol]: the half-inhibitory concentration (IC50) amounted to 250 nM. The Emax under setting [1] came out at 81%.

For the molecule `CCCn1nc(-c2ccc(O)cc2)c2cccc(N3CCOCC3)c21` [Example 105, 4-(7-Morpholin-4-yl-1-propyl-1H-indazole-3-yl)phenol], half-maximal inhibition (IC50) required 918 nM. Under setting [1], the Emax stood at 66%.

As for `CCCn1nc(-c2ccc(O)cc2)c2cccc(-c3ccccc3)c21` [Example 111, 4-(7-phenyl-1-propyl-1H-indazol-3-yl)phenol], the 50% inhibitory concentration (IC50) was determined as 214 nM. In addition, the Emax under setting [1] was determined as 78%.

For `CC(C)(C)C(=O)Oc1ccc(-c2nn(C3CCCC3)c3c(F)cccc23)cc1` [Example 112, 4-(1-cyclopentyl-7-fluoro-1H-indazol-3-yl)phenyl pivalate], the IC50 was determined as 667 nM. Under setting [1], the Emax was determined as 48%.

`CC(=O)Oc1ccc(-c2nn(C3CCCC3)c3c(F)cccc23)cc1` [Example 114, 4-(1-cyclopentyl-7-fluoro-1H-indazol-3-yl)phenyl acetate] returned a half-inhibitory concentration (IC50) of 268 nM. Besides, the Emax under setting [1] was determined as 67%.
